# PubChem BioAssay (NCI)
#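 Cells were grown in 96-well plates and exposed to each compound for 48 hours at five concentrations; endpoints were interpolated linearly between bracketing concentrations, or set to the highest concentration if not reached. GI50: concentration for 50% inhibition of growth. At the TGI there is no net growth.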
# What was measured:
# Experiment in all cases: DTP human tumour cell line panel, 48 h
# [1] = system: NCI-H522 lung
# [2] = system: UO-31 renal
# [3] = system: MDA-MB-231 breast
# [4] = system: SF-268 CNS
# [5] = system: HS 578T breast
# [6] = system: HCC-2998 colon
# [7] = system: COLO 205 colon
# [8] = system: MDA-MB-435
# [9] = system: SN12C renal
# [10] = system: HCT-116 colon
# [11] = system: NCI-H226 lung
# [12] = system: BT-549 breast
# [13] = system: CCRF-CEM leukemia
# [14] = system: HT29 colon
# [15] = system: SR leukemia
# [16] = system: OVCAR-8 ovarian
# [17] = system: SNB-75 CNS
# [18] = system: A498 renal
# [19] = system: RPMI-8226 leukemia
# [20] = system: MOLT-4 leukemia
# [21] = system: HOP-92 NSCLC
# [22] = system: CAKI-1 renal
# [23] = system: SW-620 colon
# [24] = system: U251 CNS
# [25] = system: OVCAR-3 ovarian
# [26] = system: DU-145 prostate
# [27] = system: UACC-62 melanoma
# [28] = system: K-562 leukemia
# [29] = system: SF-539 CNS
# [30] = system: IGROV1 ovarian
# [31] = system: PC-3 prostate
# [32] = system: M14 melanoma
# [33] = system: 786-0 renal
# [34] = system: TK-10 renal
# [35] = system: NCI-H23 lung
# [36] = system: HOP-62 NSCLC
# [37] = system: OVCAR-4 ovarian
# [38] = system: OVCAR-5 ovarian
# [39] = system: KM12 colon
# [40] = system: SNB-19 CNS
# [41] = system: MALME-3M melanoma
# [42] = system: EKVX NSCLC
# [43] = system: UACC-257 melanoma
# [44] = system: SK-OV-3 ovarian
# [45] = system: NCI/ADR-RES ovarian
# [46] = system: ACHN renal
# [47] = system: SK-MEL-5 melanoma
# [48] = system: HL-60(TB) leukemia
# [49] = system: SK-MEL-2 melanoma
# [50] = system: SK-MEL-28 melanoma
# [51] = system: A549 NSCLC
# [52] = system: NCI-H460 lung
# [53] = system: MCF7 breast
# [54] = system: T-47D breast
smiles,measurement,setting,value
Oc1cc2cccc[n+]2c2cc(Cl)ccc12,GI50,[1],86.3 µM
same,GI50,[2],57.9 µM
same,GI50,[3],29.2 µM
same,GI50,[4],56.3 µM
same,GI50,[5],84.5 µM
same,GI50,[6],83.3 µM
same,GI50,[7],56.9 µM
same,GI50,[8],14.9 µM
same,TGI,[8],28.1 µM
same,GI50,[9],45.2 µM
same,GI50,[10],60.3 µM
same,GI50,[11],81 µM
same,GI50,[12],78 µM
same,GI50,[13],35.9 µM
same,GI50,[14],71 µM
same,GI50,[15],48.4 µM
same,GI50,[16],92.3 µM
same,GI50,[17],91.5 µM
same,GI50,[18],18.2 µM
same,TGI,[18],32.4 µM
same,GI50,[19],57 µM
same,GI50,[20],57.3 µM
same,GI50,[21],5.06 µM
same,TGI,[21],9.88 µM
same,GI50,[22],65.9 µM
CCOC(=O)Nc1ccc(-c2nc(-c3cccc(OCCN4CCOCC4)c3)c(-c3ccnc(Br)c3)[nH]2)cc1,GI50,[1],3.31 µM
same,TGI,[1],> 100 µM
same,GI50,[2],2.72 µM
same,TGI,[2],> 100 µM
same,GI50,[3],3.79 µM
same,TGI,[3],> 100 µM
same,GI50,[4],4.55 µM
same,TGI,[4],> 100 µM
same,GI50,[23],3.42 µM
same,TGI,[23],> 100 µM
same,GI50,[24],2750 nM
same,TGI,[24],> 100 µM
same,GI50,[25],4.3 µM
same,TGI,[25],> 100 µM
same,GI50,[5],1.55 µM
same,TGI,[5],4.91 µM
same,GI50,[26],4.05 µM
same,TGI,[26],> 100 µM
same,GI50,[6],2.28 µM
same,TGI,[6],6.11 µM
same,GI50,[8],3.07 µM
same,TGI,[8],47.6 µM
same,GI50,[9],3.77 µM
same,TGI,[9],> 100 µM
same,GI50,[27],2260 nM
same,TGI,[27],7.14 µM
same,GI50,[28],2530 nM
same,TGI,[28],> 100 µM
same,GI50,[29],2080 nM
same,TGI,[29],7.48 µM
same,GI50,[10],2.98 µM
same,TGI,[10],> 100 µM
same,GI50,[11],3.18 µM
same,TGI,[11],> 100 µM
same,GI50,[30],3.65 µM
same,TGI,[30],> 100 µM
same,GI50,[31],2870 nM
same,TGI,[31],> 100 µM
same,GI50,[12],2.9 µM
same,TGI,[12],> 100 µM
same,GI50,[32],2970 nM
same,TGI,[32],13.7 µM
same,GI50,[33],1600 nM
same,TGI,[33],4.12 µM
same,GI50,[13],2.94 µM
same,TGI,[13],> 100 µM
same,GI50,[34],4.26 µM
same,TGI,[34],> 100 µM
same,GI50,[35],2190 nM
same,TGI,[35],5.6 µM
same,GI50,[36],3.1 µM
same,TGI,[36],> 100 µM
same,GI50,[37],4.36 µM
same,TGI,[37],> 100 µM
same,GI50,[14],2.9 µM
same,TGI,[14],> 100 µM
same,GI50,[38],5.11 µM
same,TGI,[38],> 100 µM
same,GI50,[15],2.74 µM
same,TGI,[15],> 100 µM
same,GI50,[16],3.73 µM
same,TGI,[16],> 100 µM
same,GI50,[39],3.19 µM
same,TGI,[39],> 100 µM
same,GI50,[40],3.81 µM
same,TGI,[40],> 100 µM
same,GI50,[41],1600 nM
same,TGI,[41],3.46 µM
same,GI50,[42],3.2 µM
same,TGI,[42],> 100 µM
same,GI50,[43],2210 nM
same,TGI,[43],5.24 µM
same,GI50,[44],2660 nM
same,TGI,[44],6.25 µM
same,GI50,[45],3.39 µM
same,TGI,[45],> 100 µM
same,GI50,[17],1.34 µM
same,TGI,[17],6.91 µM
same,GI50,[46],3.06 µM
same,TGI,[46],> 100 µM
same,GI50,[18],1.66 µM
same,TGI,[18],5.66 µM
same,GI50,[47],1740 nM
same,TGI,[47],3.15 µM
same,GI50,[19],1.07 µM
same,TGI,[19],3.78 µM
same,GI50,[48],2150 nM
same,TGI,[48],5.39 µM
same,GI50,[20],2.23 µM
same,TGI,[20],> 100 µM
same,GI50,[49],2410 nM
same,TGI,[49],6.07 µM
same,GI50,[50],1780 nM
same,TGI,[50],3.75 µM
same,GI50,[21],2.77 µM
same,TGI,[21],7.79 µM
same,GI50,[51],3.47 µM
same,TGI,[51],> 100 µM
same,GI50,[52],3.32 µM
same,TGI,[52],> 100 µM
same,GI50,[53],1620 nM
same,TGI,[53],4.27 µM
same,GI50,[54],2740 nM
same,TGI,[54],> 100 µM
